According to patent US20060046968A1, “Prodrug substituted benzoxazoles as estrogenic agents” (priority 2004, published 2006):

How the values were obtained:
Assay type in all cases: in vivo
[1] = test system: Male HLA-B27 rats; assay: HLA-B27 rat test for inflammatory bowel disease: histological scoring of colon; conditions: Study C
Experimental: Representative metabolites of compounds of the invention were evaluated in the HLA rat standard pharmacological test procedure, which emulates inflammatory bowel disease in humans. The following briefly describes the procedure used and results obtained. […] Louis) and water. Stool quality was observed daily and graded according to the following scale: Diarrhea=3; soft stool=2; normal stool=1. At the end of the study, serum was collected and stored at −70° C. A section of colon was prepared for histological analysis and an additional segment was analyzed for myeloperoxidase activity. In Study A, rats (22-26 weeks old) were dosed subcutaneously once per day for seven days with one of the regimens listed below. […] Histological analysis. Colonic tissue was immersed in 10% neutral buffered formalin. Each specimen of colon was separated into four samples for evaluation. The formalin-fixed tissues were processed in a Tissue-Tek® vaccum infiltration processor (Miles, Inc; West Haven, Conn.) for paraffin embedding. The samples were sectioned at 5 μm and then stained with hematoxylin and eosin (H&E) for blinded histological evaluations using a scale modified after Boughton-Smith. After the scores were completed, the samples were unblinded, and data were tabulated and analyzed by ANOVA linear modeling with multiple mean comparisons. Sections of colonic tissue were evaluated for several disease indicators and given relative scores.

[2] = test system: ovariectomized Sprague-Dawley rats; assay: Bone mineral density in the ovariectomized rat (pQCT, proximal tibia); conditions: compound 10 mg/kg s.c.; 5 weeks
[3] = test system: Sexually immature 129 SvE mice; assay: Mouse uterotrophic test procedure (Procedure 2); conditions: compound 20 mg/kg s.c., days 22-25
[4] = test system: Male HLA-B27 rats; assay: HLA rat test for inflammatory bowel disease: stool character (3 = diarrhea; 2 = soft stool; 1 = normal stool); conditions: Study C
[5] = test system: Male HLA-B27 rats; assay: HLA-B27 rat model of arthritis: joint scores; conditions: Study 1, oral 20 mg/kg once per day (10 mg/kg earlier)
[6] = test system: Sexually immature Sprague-Dawley rats; assay: Rat uterotrophic test procedure (Procedure 1); conditions: compound 2 mg/rat + 17α-ethinyl, 17β-estradiol 0.06 μg/rat s.c. (antagonist mode)
[7] = test system: Male HLA-B27 rats; assay: HLA-B27 rat model of arthritis: joint histology; conditions: Study 1; oral 46 days; 10 mg/kg days 1-18, then 20 mg/kg
Experimental: At the end of the study, the rats are euthanized with CO2, hindlimbs removed at necropsy and fixed in 10% buffered formalin, and the tarsal joints decalcified and embedded in paraffin. Histologic sections are stained with Hematoxylin and Eosin or […] Green stain. Slides are coded so that the examiner is blinded to the treatment groups. Synovial tissue from tarsal joints is evaluated based on synovial hyperplasia, inflammatory cell infiltration, and pannus formation [Poole and Coombs, International Archives of Allergy & Applied Immunology 54: 97-113 (1977)], as outlined below. [table] […] [table] Representative metabolites of compounds of the invention were evaluated in the HLA-B27 rat standard pharmacological test procedure, which emulates arthritis in humans. The following briefly describes the procedure used and results obtained. Male HLA-B27 rats were obtained from Taconic and provided unrestricted access to a food (PMI® LabDiet 5001) and water. Joint scores and histology were evaluated as described above for the Lewis rat model of adjuvant-induced arthritis. Study 1: […]

[8] = oral 7 weeks, 10 mg/kg days 1-18, then 20 mg/kg

In the case of `Oc1cc(Br)c2oc(-c3ccc(O)c(F)c3)nc2c1` [Example 21, 7-BROMO-2-(3-FLUORO-4-HYDROXYPHENYL)-1,3-BENZOXAZOL-5-OL], the “Scores on all disease parameters versus vehicle” value ([1]; oral) is reported as “although not statistically significant, were lower than corresponding scores from vehicle-treated rats”, the “Fibrosis (0-2), mean ± SD” value [1, 8] is reported as 0.56 ± 0.32 and the “Inflammation (0-3), mean ± SD” value [1, 8] is reported as 2.06 ± 0.43. For the same compound, the “Lesion depth (0-2), mean ± SD” value [1, 8] was 0.75 ± 0.50, the “Total score, mean ± SD” value [1, 8] was 4.19 ± 1.74 and the “Ulceration (0-2), mean ± SD” value [1, 8] was 0.81 ± 0.47. The “Total Bone Mineral Density (mean ± SEM)” value [2] was 501.40 ± 11.97 mg/mL, the “Trabecular Bone Mineral Density (mean ± SEM)” value [2] was 312.34 ± 19.73 mg/mL and the “mean uterine weight ± SEM” value [3] was 12.1 ± 1.7 mg. For the same compound, the “Stool Character (group's average score)” value ([4]; oral 10 mg/kg once per day, Day 1) was 2.75, the “Stool Character (group's average score)” value ([4]; oral 10 mg/kg once per day, Day 3) was 2.75 and the “Stool Character (group's average score)” value ([4]; oral 10 mg/kg once per day, Day 4) was 2.75. For the same compound, the “Stool Character (group's average score)” value ([4]; oral 10 mg/kg once per day, Day 5) was 2.75, the “Stool Character (group's average score)” value ([4]; oral 10 mg/kg once per day, Day 6) was 2.5 and the “Stool Character (group's average score)” value ([4]; oral 10 mg/kg once per day, Day 7) was 2.5. The “Stool Character (group's average score)” value ([4]; oral 10 mg/kg once per day, Day 8) was 2.75, the “Stool Character (group's average score)” value ([4]; oral 10 mg/kg once per day, Day 9) was 2.5 and the “Stool Character (group's average score)” value ([4]; oral 10 mg/kg once per day, Day 10) was 2.75. The “Stool Character (group's average score)” value ([4]; oral 10 mg/kg once per day, Day 11) was 2.5, the “Stool Character (group's average score)” value ([4]; oral 10 mg/kg once per day, Day 12) was 2.5 and the “Stool Character (group's average score)” value ([4]; oral 10 mg/kg once per day, Day 13) was 2.5. For the same compound, the “Stool Character (group's average score)” value ([4]; oral 10 mg/kg once per day, Day 14) was 2.5, the “Stool Character (group's average score)” value ([4]; oral 10 mg/kg once per day, Day 15) was 2.5 and the “Stool Character (group's average score)” value ([4]; oral 10 mg/kg once per day, Day 16) was 2.5. The “Stool Character (group's average score)” value ([4]; oral 10 mg/kg once per day, Day 17) was 2.5, the “Stool Character (group's average score)” value ([4]; oral 10 mg/kg once per day, Day 18) was 2.5 and the “Stool Character (group's average score)” value ([4]; oral 20 mg/kg once per day (10 mg/kg days 1-18), Day 19) was 2.75. For the same compound, the “Stool Character (group's average score)” value ([4]; oral 20 mg/kg once per day (10 mg/kg days 1-18), Day 20) was 2.5, the “Stool Character (group's average score)” value ([4]; oral 20 mg/kg once per day (10 mg/kg days 1-18), Day 21) was 2.75 and the “Stool Character (group's average score)” value ([4]; oral 20 mg/kg once per day (10 mg/kg days 1-18), Day 22) was 2.5. For the same compound, the “Stool Character (group's average score)” value ([4]; oral 20 mg/kg once per day (10 mg/kg days 1-18), Day 23) was 2.25, the “Stool Character (group's average score)” value ([4]; oral 20 mg/kg once per day (10 mg/kg days 1-18), Day 24) was 1.75 and the “Stool Character (group's average score)” value ([4]; oral 20 mg/kg once per day (10 mg/kg earlier), Day 25) was 2. For the same compound, the “Stool Character (group's average score)” value ([4]; oral 20 mg/kg once per day (10 mg/kg earlier), Day 26) was 2, the “Stool Character (group's average score)” value ([4]; oral 20 mg/kg once per day (10 mg/kg earlier), Day 27) was 2 and the “Stool Character (group's average score)” value ([4]; oral 20 mg/kg once per day (10 mg/kg earlier), Day 28) was 2. The “Stool Character (group's average score)” value ([4]; oral 20 mg/kg once per day (10 mg/kg earlier), Day 29) was 2, the “Stool Character (group's average score)” value ([4]; oral 20 mg/kg once per day (10 mg/kg earlier), Day 30) was 2.25 and the “Stool Character (group's average score)” value ([4]; oral 20 mg/kg once per day (10 mg/kg earlier), Day 31) was 2.25. The “Stool Character (group's average score)” value ([4]; oral 20 mg/kg once per day (10 mg/kg earlier), Day 32) was 2, the “Stool Character (group's average score)” value ([4]; oral 20 mg/kg once per day (10 mg/kg earlier), Day 33) was 1.5 and the “Stool Character (group's average score)” value ([4]; oral 20 mg/kg once per day (10 mg/kg earlier), Day 34) was 1.75. For the same compound, the “Stool Character (group's average score)” value ([4]; oral 20 mg/kg once per day (10 mg/kg earlier), Day 35) was 1.5, the “Stool Character (group's average score)” value ([4]; oral 20 mg/kg once per day (10 mg/kg earlier), Day 36) was 1.75 and the “Stool Character (group's average score)” value ([4]; oral 20 mg/kg once per day (10 mg/kg earlier), Day 37) was 1.5. The “Stool Character (group's average score)” value ([4]; oral 20 mg/kg once per day (10 mg/kg earlier), Day 38) was 1.5, the “Stool Character (group's average score)” value ([4]; oral 20 mg/kg once per day (10 mg/kg earlier), Day 39) was 2 and the “Stool Character (group's average score)” value ([4]; oral 20 mg/kg once per day (10 mg/kg earlier), Day 40) was 1.75. For the same compound, the “Stool Character (group's average score)” value ([4]; oral 20 mg/kg once per day (10 mg/kg earlier), Day 41) was 2, the “Stool Character (group's average score)” value ([4]; oral 20 mg/kg once per day (10 mg/kg earlier), Day 42) was 2 and the “Stool Character (group's average score)” value ([4]; oral 20 mg/kg once per day (10 mg/kg earlier), Day 43) was 2. The “Stool Character (group's average score)” value ([4]; oral 20 mg/kg once per day (10 mg/kg earlier), Day 44) was 2, the “Stool Character (group's average score)” value ([4]; oral 20 mg/kg once per day (10 mg/kg earlier), Day 45) was 2 and the “Stool Character (group's average score)” value ([4]; oral 20 mg/kg once per day (10 mg/kg earlier), Day 46) was 2. The Joint inflammation score ([5]; Day 29) was 0.75, the Joint inflammation score ([5]; Day 30) was 1.75 and the Joint inflammation score ([5]; Day 31) was 1.25. For the same compound, the Joint inflammation score ([5]; Day 32) was 0.75, the Joint inflammation score ([5]; Day 33) was 1 and the Joint inflammation score ([5]; Day 34) was 1.25. The Joint inflammation score ([5]; Day 35) was 2.25, the Joint inflammation score ([5]; Day 36) was 1 and the Joint inflammation score ([5]; Day 37) was 4. The Joint inflammation score ([5]; Day 38) was 1.5, the Joint inflammation score ([5]; Day 39) was 1.5 and the Joint inflammation score ([5]; Day 40) was 2.25. For the same compound, the Joint inflammation score ([5]; Day 41) was 2.25, the Joint inflammation score ([5]; Day 42) was 1.5 and the Joint inflammation score ([5]; Day 43) was 1.25. The Joint inflammation score ([5]; Day 44) was 1, the Joint inflammation score ([5]; Day 45) was 2.5 and the Joint inflammation score ([5]; Day 46) was 2. For the same compound, the “mean uterine weight ± SEM” value [6] was 93.9 ± 5.9 mg, the “Mankin score (mean ± SD)” value [7] was 4.6 ± 0.9 and the “Synovitis score (mean ± SD)” value [7] was 6.1 ± 0.75.
